Consider 21 compounds from patent publication US7745619B2, “Vinca derivatives” (priority 2003, dated 2010).

SMILES strings stand for the structures. Read-outs that look alike come from different tables or passages of the source.

The test system of test [1] is HeLa S-3 cells. Briefly: HeLa GI50 determination (SRB growth inhibition). The format is cell-based, human. As to conditions: Homo sapiens, HeLa S3, 48 h. On the procedure:
Growth inhibition (GI50) values were measured on the human cervical carcinoma cell line, HeLa S-3, which were selected for growth on plastic. The HeLa cell assay was based on the description of Skehan et al., J. Natl. Cancer Inst., 82:1107-12 (1990), which is hereby incorporated by reference in its entirety. HeLa cells were plated at 2×10^4 cells/well in 96 well plates. One day later, a control plate was fixed by the addition of TCA to 5%. After five rinses with tap water, the plate was air-dried and stored at 4° C. Test compounds were added to the remaining plates at 10-fold dilutions. Two days later, all plates were fixed as described above. Cells were then stained by the addition of 100 μL per well of 0.4% sulforhodamine B (SRB) in 1% acetic acid for 30 min at 4° C. Wells were then quickly rinsed 5× with 1% acetic acid and allowed to air dry. The SRB was then solubilized by the addition of 100 μL per well of unbuffered 10 mM Tris base. Dye was quantified by measuring absorbance at 490 nm on a Molecular Devices microplate reader. Growth inhibition was calculated according to the following equation: GI=100×(T−T0)/(C−T0), where the optical density (OD) of the test well after 2 days of treatment was T, the OD of the wells in the control plate on day 0 was T0 and C was the OD of untreated wells. Plots of percent growth inhibition versus inhibitor concentration were used to determine the GI50.

Test [2] concerns MCF-7 cells. Briefly: MCF-7 GI50 determination (crystal violet growth inhibition). In kind it is cell-based, human. The following applies: Homo sapiens, MCF7, 96 h. As for the experimental part: Growth inhibition (GI50) values were measured on the human breast carcinoma line, MCF-7. MCF-7 cells were plated at 2×10^4 cells/well in 96 well plates and grown for 24 hours in drug free media. On day 2, test compounds were added to the plates at 10-fold dilutions. Four days later, cells were fixed by the addition of glutaraldehyde to 0.75%. After 30 min, the fixed cells were extensively rinsed with distilled water and dried at room temperature for one hour. The cells were then stained with a 0.2% crystal violet solution for one hour at room temperature. Unbound stain was removed by ten rinses with tap water and plates were allowed to air dry for 30 min. The crystal violet was then solubilized by the addition of 10% acetic acid for 15 min and quantified by measuring absorbance at 570 nm on a Molecular Devices microplate reader. Growth inhibition was calculated according to the following equation: GI=[…], where the optical density (OD) of the test well after 4 days of treatment was T, the OD of the wells in the control plate on day 0 was T0. Plots of percent growth inhibition versus inhibitor concentration were used to determine the GI50.

Where [3] appears, read: HeLa S-3 cells, 2 days of treatment, sulforhodamine B, read-out: HeLa Cells GI50.
Setting [4] is: MCF-7 cells, 4 days of treatment, crystal violet, read-out: MCF-7 Cells GI50.
[5] abbreviates: read-out: MCF-7 Cells GI50 (nM).

With `CC[C@]1(O)C[C@H]2CN(CCc3c([nH]c4ccc(S)cc34)[C@@](C(=O)OC)(c3cc4c(cc3OC)N(C)[C@H]3[C@@](O)(C(=O)OC)[C@H](OC(C)=O)[C@]5(CC)C=CCN6CC[C@]43[C@@H]65)C2)C1` [Example 53, 12′-thiovinblastine], the GI50 stood at 20 nM in test [1] (setting [3]) and 30 nM in test [2] (setting [4]).

Regarding `CC[C@]1(O)C[C@H]2CN(CCc3c([nH]c4ccc(Sc5cccc(O)c5)cc34)[C@@](C(=O)OC)(c3cc4c(cc3OC)N(C=O)[C@H]3[C@@](O)(C(=O)OC)[C@H](OC(C)=O)[C@]5(CC)C=CCN6CC[C@]43[C@@H]65)C2)C1` [Example 54, 12′-(3-hydroxyphenylsulfanyl)vincristine], the GI50 in test [1] (read-out: HeLa Cells GI50 (nM)) is 100 nM; in test [2] (setting [5]), 50 nM.

For the compound `CC[C@]1(O)C[C@H]2CN(CCc3c([nH]c4ccc(Sc5ccccc5O)cc34)[C@@](C(=O)OC)(c3cc4c(cc3OC)N(C)[C@H]3[C@@](O)(C(=O)OC)[C@H](OC(C)=O)[C@]5(CC)C=CCN6CC[C@]43[C@@H]65)C2)C1` [Example 55, 12′-(2-hydroxyphenylsulfanyl)vinblastine], the figures for the GI50 in test [1] (read-out: HeLa Cells GI50 (nM)) and in test [2] (setting [5]) were 19 nM and 6 nM, respectively.

As to `CC[C@]1(O)C[C@H]2CN(CCc3c([nH]c4ccc(Sc5ccccc5Cl)cc34)[C@@](C(=O)OC)(c3cc4c(cc3OC)N(C=O)[C@H]3[C@@](O)(C(=O)OC)[C@H](OC(C)=O)[C@]5(CC)C=CCN6CC[C@]43[C@@H]65)C2)C1` [Example 56, 12′-(2-chlorophenylsulfanyl)vincristine], the GI50 in test [1] (read-out: HeLa Cells GI50 (nM)) and in test [2] (setting [5]) was 30 nM in each case.

Consider `CC[C@]1(O)C[C@H]2CN(CCc3c([nH]c4ccc(SSC)cc34)[C@@](C(=O)OC)(c3cc4c(cc3OC)N(C)[C@H]3[C@@](O)(C(=O)OC)[C@H](OC(C)=O)[C@]5(CC)C=CCN6CC[C@]43[C@@H]65)C2)C1` [Example 57, 12′-(methyldisulfanyl) vinblastine], for which the GI50 in test [1] (setting [3]) and in test [2] (setting [4]) was 300 nM throughout.

Regarding `CC[C@]1(O)C[C@H]2CN(CCc3c([nH]c4ccc(SSC(C)C)cc34)[C@@](C(=O)OC)(c3cc4c(cc3OC)N(C)[C@H]3[C@@](O)(C(=O)OC)[C@H](OC(C)=O)[C@]5(CC)C=CCN6CC[C@]43[C@@H]65)C2)C1` [Example 58, 12′-(isopropyldisulfanyl) vinblastine], the figures for the GI50 in test [1] (read-out: HeLa Cells GI50 (nM)) and in test [2] (setting [5]) were 200 nM and 100 nM, respectively.

Regarding `CC[C@]1(O)C[C@H]2CN(CCc3c([nH]c4ccc(SSC(C)(C)C)cc34)[C@@](C(=O)OC)(c3cc4c(cc3OC)N(C)[C@H]3[C@@](O)(C(=O)OC)[C@H](OC(C)=O)[C@]5(CC)C=CCN6CC[C@]43[C@@H]65)C2)C1` [Example 59, 12′-(tert-butyldisulfanyl) vinblastine], the GI50 in test [1] (read-out: HeLa Cells GI50 (nM)) and in test [2] (setting [5]) was 300 nM each time.

Take `CC[C@]1(O)C[C@H]2CN(CCc3c([nH]c4ccc(C=O)cc34)[C@@](C(=O)OC)(c3cc4c(cc3OC)N(C)[C@H]3[C@@](O)(C(=O)OC)[C@H](OC(C)=O)[C@]5(CC)C=CCN6CC[C@]43[C@@H]65)C2)C1` [Example 61, 12′-formylvinblastine]: the GI50 in test [1] (setting [3]) and in test [2] (setting [4]) was 3 nM each time.

Regarding `CC[C@]1(O)C[C@H]2CN(CCc3c([nH]c4ccc(C=O)cc34)[C@@](C(=O)OC)(c3cc4c(cc3OC)N(C=O)[C@H]3[C@@](O)(C(=O)OC)[C@H](OC(C)=O)[C@]5(CC)C=CCN6CC[C@]43[C@@H]65)C2)C1` [Example 62, 12′-formylvincristine], the results for the 50% growth inhibitory concentration (GI50) in test [1] (setting [3]) and in test [2] (setting [4]) were 10 nM and 30 nM, respectively.

With `CC[C@]1(O)C[C@H]2CN(CCc3c([nH]c4ccc(CO)cc34)[C@@](C(=O)OC)(c3cc4c(cc3OC)N(C)[C@H]3[C@@](O)(C(=O)OC)[C@H](OC(C)=O)[C@]5(CC)C=CCN6CC[C@]43[C@@H]65)C2)C1` [Example 63, 12′-(hydroxymethyl) vinblastine], the GI50 in test [1] (setting [3]) worked out at 40 nM; in test [2] (setting [4]), 60 nM.

Take `CC[C@]1(O)C[C@H]2CN(CCc3c([nH]c4ccc(CNC(C)C)cc34)[C@@](C(=O)OC)(c3cc4c(cc3OC)N(C)[C@H]3[C@@](O)(C(=O)OC)[C@H](OC(C)=O)[C@]5(CC)C=CCN6CC[C@]43[C@@H]65)C2)C1` [Example 64, 12′-(N-isopropylaminomethyl)vinblastine]: the GI50 in test [1] (setting [3]) is 900 nM; in test [2] (setting [4]) it was more than 1000 nM.

As for `CC[C@]1(O)C[C@H]2CN(CCc3c([nH]c4ccc(C#N)cc34)[C@@](C(=O)OC)(c3cc4c(cc3OC)N(C)[C@H]3[C@@](O)(C(=O)OC)[C@H](OC(C)=O)[C@]5(CC)C=CCN6CC[C@]43[C@@H]65)C2)C1` [Example 65, 12′-cyanovinblastine], the GI50 in test [1] (setting [3]) and in test [2] (setting [4]) was 3 nM in each case.

With `CC[C@]1(O)C[C@H]2CN(CCc3c([nH]c4ccc(C#N)cc34)[C@@](C(=O)OC)(c3cc4c(cc3OC)N(C=O)[C@H]3[C@@](O)(C(=O)OC)[C@H](OC(C)=O)[C@]5(CC)C=CCN6CC[C@]43[C@@H]65)C2)C1` [Example 66, 12′-cyanovincristine], the GI50 in test [1] (setting [3]) is 10 nM; in test [2] (setting [4]), 4 nM.

Turning to `CC[C@]1(O)C[C@H]2CN(CCc3c([nH]c4ccc(C(=O)OCC(Cl)(Cl)Cl)cc34)[C@@](C(=O)OC)(c3cc4c(cc3OC)N(C)[C@H]3[C@@](O)(C(=O)OC)[C@H](OC(C)=O)[C@]5(CC)C=CCN6CC[C@]43[C@@H]65)C2)C1` [Example 68, 12′-(2,2,2-trichloroethylcarbonyl)vinblastine], the GI50 is 30 nM in test [1] (read-out: HeLa Cells GI50 (nM)) and 200 nM in test [2] (setting [5]).

In the case of `CC[C@]1(O)C[C@H]2CN(CCc3c([nH]c4ccc(C(=O)NC)cc34)[C@@](C(=O)OC)(c3cc4c(cc3OC)N(C)[C@H]3[C@@](O)(C(=O)OC)[C@H](OC(C)=O)[C@]5(CC)C=CCN6CC[C@]43[C@@H]65)C2)C1` [Example 69, 12′-N-(methylaminocarbonyl)vinblastine], the GI50 in test [1] (read-out: HeLa Cells GI50 (nM)) is 600 nM; in test [2] (setting [5]), more than 1000 nM.

As for `CC[C@]1(O)C[C@H]2CN(CCc3c([nH]c4ccc(C(C)=O)cc34)[C@@](C(=O)OC)(c3cc4c(cc3OC)N(C)[C@H]3[C@@](O)(C(=O)OC)[C@H](OC(C)=O)[C@]5(CC)C=CCN6CC[C@]43[C@@H]65)C2)C1` [Example 70, 12′-acetylvinblastine], the GI50 in test [1] (read-out: HeLa Cells GI50 (nM)) was 200 nM; in test [2] (setting [5]), 100 nM.

`CC[C@]1(O)C[C@H]2CN(CCc3c([nH]c4ccc(C(=O)CC(C)C)cc34)[C@@](C(=O)OC)(c3cc4c(cc3OC)N(C=O)[C@H]3[C@@](O)(C(=O)OC)[C@H](OC(C)=O)[C@]5(CC)C=CCN6CC[C@]43[C@@H]65)C2)C1` [Example 71, 12′-(3-methylbutanoyl) vincristine]: the results for the GI50 in test [1] (read-out: HeLa Cells GI50 (nM)) and in test [2] (setting [5]) were 200 nM and 100 nM, respectively.

In the case of `CCCCCC(=O)c1ccc2[nH]c3c(c2c1)CCN1C[C@H](C[C@@](O)(CC)C1)C[C@]3(C(=O)OC)c1cc2c(cc1OC)N(C=O)[C@H]1[C@@](O)(C(=O)OC)[C@H](OC(C)=O)[C@]3(CC)C=CCN4CC[C@]21[C@@H]43` [Example 72, 12′-hexanoylvincristine], the GI50 was 40 nM in test [1] (read-out: HeLa Cells GI50 (nM)) and 50 nM in test [2] (setting [5]).

With `CC[C@]1(O)C[C@H]2CN(CCc3c([nH]c4ccc(CCC(C)C)cc34)[C@@](C(=O)OC)(c3cc4c(cc3OC)N(C=O)[C@H]3[C@@](O)(C(=O)OC)[C@H](OC(C)=O)[C@]5(CC)C=CCN6CC[C@]43[C@@H]65)C2)C1` [Example 73, 12′-(3-methylbutyl) vincristine], the results for the 50% growth inhibitory concentration (GI50) in test [1] (read-out: HeLa Cells GI50 (nM)) and in test [2] (setting [5]) were 200 nM and 300 nM, respectively.

Regarding `CCCCCCc1ccc2[nH]c3c(c2c1)CCN1C[C@H](C[C@@](O)(CC)C1)C[C@]3(C(=O)OC)c1cc2c(cc1OC)N(C=O)[C@H]1[C@@](O)(C(=O)OC)[C@H](OC(C)=O)[C@]3(CC)C=CCN4CC[C@]21[C@@H]43` [Example 74, 12′-hexylvincristine], the GI50 was 30 nM in test [1] (setting [3]) and 40 nM in test [2] (setting [4]).

With `CC[C@]1(O)C[C@H]2CN(CCc3c([nH]c4ccc(C)cc34)[C@@](C(=O)OC)(c3cc4c(cc3OC)N(C=O)[C@H]3[C@@](O)(C(=O)OC)[C@H](OC(C)=O)[C@]5(CC)C=CCN6CC[C@]43[C@@H]65)C2)C1` [Example 76, 12′-methylvincristine], the 50% growth inhibitory concentration (GI50) in test [1] (setting [3]) amounted to 1 nM; in test [2] (setting [4]), 3 nM.
